Measured values: patent US10420755B2, “Use of ciclopirox for the treatment of congenital erythropoietic porphyria” (ASOCIACIÓN CENTRO DE INVESTIGACIÓN COOPERATIVA EN …, priority 2016, dated 2019)
Numbering of substitutions follows the chain as printed. Where a SMILES comes first, the peptide text is derived from it. The star is where a group is joined. Cbz = O=C(OCc1ccccc1)*

Legend:
HEK 562 cells = assay: HPLC quantification of UROI in cellular model of CEP; assay type: cell-based, human; settings: equimolar quantities of MG and ciclopirox
Experimental: Inset: variation of the concentration of UROI as a function of the CP concentration, in comparison to MG and the absence of any chemical. CP=ciclopirox, MG=proteasomal inhibitor MG132, UROI=uroporphyrinogen I.
Moreover, the reduction in the fluorescence corresponds to a decrease in the intracellular concentration of UROI (see FIG. 4).
HPLC was used to separate and quantify UROI and UROIII products from PBGD and UROIIIS-C73N enzymatic assays and from cellular extracts. HPLC was carried out on a ODS Hypersil C18 column (5 um, 3×200 mm; Thermo Scientific, MA, USA). Porphyrins were separated with a 15 min isocratic elution in a mobile phase of 89% 1M ammonium acetate buffer pH 5.16 and 11% Acetonitrile, at a flow rate of 0.5 mL/min, and were detected by fluorescence with an excitation wavelength 405 nm and emission wavelength 610 nm, which is characteristic of porphyrins. The sample injection volume was […].

HEK 562 = assay: Porphyrin accumulation (fluorocytes) by FACS in cellular model of CEP; assay type: cell-based, human; settings: HEK 562 CEP model
Experimental: FIG. 3: Evaluation of UROI levels in a normal HEK cellular phenotype [Up-left graph], in a human in vitro cellular model of CEP (HEK 562) [Up-right graph], in HEK 562 with a tool compound (a proteasome inhibitor termed in the data MG) [Down-left graph], and in HEK 562 with ciclopirox [Down-right graph]. The accumulation of porphyrins is measured by fluorescence spectroscopy (fluorocytes) and is depicted in as the right-shift of the population as compared to normal cells (that are concentrated on the left due to the absence of intrinsic fluorescence). The numbers in bold indicate the percentage of cells in each of the specific populations. CP=ciclopirox, MG=proteasomal inhibitor MG132.
The current supporting data disclosed is in relation to a human in vitro cellular model of CEP (HEK 562) in which there is a stable genomic defect introduced into the uroporphyrinogen III synthase enzyme which drives the accumulation of toxic porphyrins and ultimately the pathology of CEP (including the characteristic disabling and disfiguring skin lesions in CEP patients). […] The accumulation of porphyrins is measured by fluorescence spectroscopy (fluorocytes) and appear shifted to the right as compared to normal cells (which are concentrated in the left area). The numbers in bold indicate the percentage of cells in each of the specific populations. […]

[1] = system: mouse in vivo model of CEP; settings: associated with elevation of cellular UROIIIS levels; cited from earlier work
[2] = system: murine model of CEP (P248Q+/+); assay: Murine model of CEP treated with ciclopirox in food; assay type: in vivo, mouse
Description: FIG. 5: Change in porphyrin levels and consequent effect on splenomegaly in mice treated with ciclopirox (CPX). A) Left: URO I or B) COPRO I porphyrin concentration in red blood cells (RBC) as determined by HPLC analysis for the mouse group treated with CPX (n=7, solid line) and the control group (n=9, dashed line). Right: representation of the same porphyrin levels but compared to their respective values at day 0 for the mice treated with CPX (solid line) and the untreated mice (dashed line). The reduction of porphyrins between the two groups is shown in grey dashed line (in percentage). C) Variation in the protoporphyrin IX (PROTO IX) concentration over time in the mouse group treated with CPX (solid line) and the control group (dashed line). D) Concentration of porphyrins in urine at day 45 of treatment (normalized versus creatinine concentration). E) Change in UROI levels in the liver at day 45 of treatment (weight normalized) F) CPX reduces splenomegaly after 45 days of treatment since the spleen volume of the untreated mice (top row) is higher than the CPX treated group (bottom row) Splenomegaly is directly associated with haemolytic anaemia.
Upon treatment disruption, the porphyrin levels are restored, but slowly.
Additionally, after 45 days of treatment, ciclopirox reduced in 40% the porphyrin levels in liver tissue (shown in FIG. 5-E for UROI) and the splenomegaly (FIG. 5-F)—evidence of reduced haemolysis. Moreover, there was a significant weight reduction of the spleen when comparing the ciclopirox group (mean 410±86 mg, FIG. 5-F bottom row) and the untreated group (mean 985±204 mg, FIG. 5-F top row).
A total of 16 animals (murine model of CEP) were used in the experiment and ciclopirox was mixed with the food pellets; 7 animals had food with ciclopirox (plasma levels achieved between 15 and 20 μM) and 9 animals were not given treatment. The isomer I porphyrin levels were monitored in the blood weekly. After a basal (pre-treatment) sample (day 0), treatment was started on day 2 and the first post-treatment sample was obtained on day 3, followed by weekly monitoring.

UROIIIS = biological target: T1, UROIIIS (Homo sapiens, UniProt P10746); assay: Direct binding by NMR spectroscopy
T1 construct: made in house
T1 sequence (P10746 1-265): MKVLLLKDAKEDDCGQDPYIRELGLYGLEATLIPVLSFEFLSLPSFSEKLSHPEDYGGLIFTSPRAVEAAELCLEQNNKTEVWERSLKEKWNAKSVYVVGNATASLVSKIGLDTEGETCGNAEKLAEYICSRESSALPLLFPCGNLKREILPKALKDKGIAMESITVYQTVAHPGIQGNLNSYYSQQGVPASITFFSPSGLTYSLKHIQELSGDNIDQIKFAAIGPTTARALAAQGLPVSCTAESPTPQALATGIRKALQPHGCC

C73R- and P248Q-UROIIIS = biological target: T2, C73R- and P248Q-UROIIIS (Homo sapiens, UniProt P10746, C73R); assay: UROIIIS-GFP protein levels (GFP fluorescence) in HEK cells stably expressing mutants; assay type: cell-based; settings: HEK cells expressing C73R or P248Q mutants, compared with WT-UROIIIS
T2 construct: expressed in transfected cells
T2 sequence (P10746 1-265 C73R): T1 sequence (P10746 1-265) with C73R
Description: FIG. 2: A fusion construct with GFP (C73R-UROIIIS-GFP) has been stably expressed in HEK cells to measure the increase in the protein levels, by monitoring the intrinsic GFP fluorescence. […] Introduction of the pathogenic mutations (i. e. C73R or P248Q) reduces the intrinsic fluorescence due to a decrease in the intracellular UROIIIS concentration. […] For comparison, data obtained with a powerful proteasome inhibitor (MG) is also included. Dashed lines correspond to error bars. CP=ciclopirox, MG=proteasomal inhibitor MG132.
Specifically, we have tested the protein expression for the two most aggressive mutations: C73R- and P248Q-UROIIIS (FIG. 2), utilising human embryonic kidney cells (HEK) stably expressing these mutations.

C73N-UROIIIS = biological target: T3, C73N-UROIIIS (Homo sapiens, UniProt P10746, C73N); assay: In vitro enzymatic assay of UROIIIS (PBGD-coupled, as a function of PBG concentration); assay type: biochemical; settings: ratio UROIIIS:ciclopirox 1:5
T3 construct: made in house
T3 sequence (P10746 1-265 C73N): T1 sequence (P10746 1-265) with C73N
Experimental: FIG. 1: evaluation of the C73N-UROIIIS catalytic activity as a function of the PBG concentration. Porphobilinogen deaminase (PBGD) converts porphobilinogen (PBG) into preuroporphirinogen, the substrate for UROIIIS. PBGD is added in excess, acting as a reagent and the experiment reports only on the catalytic activity of the uroporphyrinogen III synthase. The solid/dashed lines correspond to the experimental points in the absence/presence of ciclopirox at a ratio UROIIIS:ciclopyrox 1:5.
The in vitro activity of a deleterious variant of the UROIIIS is measured as a function of the PBG concentration. […] C73N-UROIIIS produces reduced catalytic activity of the enzyme (FIG. 1, solid line).
The assay is based on the method described by Jordan (Shoolingin-Jordan P M et al. (1997). Methods in enzymology 281: 327-336) with some modifications. […] of porphobilinogen deaminase (PBGD) at a concentration of […] in […] of buffer (20 mM Tris-HCl pH 8.0, NaCl 150 mM, pH 8.0) is add in a 96 weels plate. […] of the porphobilinogen (PBG) substrate are then added, diluted to different concentrations (0.1, 0.4, 0.8, 1.5, 2, 3, 4 mM) in the aforementioned buffer and are incubated at 37° C. for one minute. […] Finally, we measure the change of absorbance at 405 nm with respect to the control sample in a plate ABS reader.

[3] = treated vs control group, up to day 45

| Compound | UROI level by HPLC (HEK 562 cells) | Porphyrin accumulation / cellular phenotype (fluorocytes) (HEK 562) | Skin lesions [1] | Reduction of porphyrin levels in liver tissue (UROI) ([2]; after 45 days of treatment) | Splenomegaly ([2]; after 45 days of treatment) | Spleen weight (mean) ([2]; after 45 days of treatment, untreated group 985±204 mg) | Isomer I porphyrins in urine ([2]; day 45, normalized versus creatinine) | Protoporphyrin IX (PROTO IX) concentration ([2]; over time, treated vs control) | COPRO I porphyrin in blood (RBC) [2, 3] | URO I porphyrin in blood (RBC) [2, 3] | Direct binding to the enzyme (UROIIIS) | Intracellular UROIIIS-GFP fluorescence levels (C73R- and P248Q-UROIIIS) | C73N-UROIIIS catalytic (enzymatic) activity (C73N-UROIIIS) |
| --- | --- | --- | --- | --- | --- | --- | --- | --- | --- | --- | --- | --- | --- |
| CC(C)C[C@@H](C=O)NC(=O)[C@H](CC(C)C)NC(=O)[C@H](CC(C)C)NC(=O)OCc1ccccc1 [MG] (Cbz-Leu-Leu-Leu-aldehyde) | reduction of UROI | reduces toxic porphyrin levels | decreased skin lesions |  |  |  |  |  |  |  |  |  |  |
| Cc1cc(C2CCCCC2)n(O)c(=O)c1 [ciclopirox, 6-cyclohexyl-1-hydroxy-4-methyl-2(1H)-pyridone] | reduction of UROI | largely restore the normal HEK cellular phenotype |  | 40% | reduced | 410 ± 86 mg | significantly reduced | increase the concentration | significantly reduced | significantly reduced | Direct binding has also been demonstrated | largely restitutes the fluorescence levels observed with WT-UROIIIS | recovers the enzymatic activity |
